Reference: patent publication US20220119840A1, “CLOSED-ENDED DNA (CEDNA) AND USE IN METHODS OF REDUCING GENE OR NUCLEIC ACID THERAPY RELATED IMMUNE RESPONSE” (Generation Bio Co., priority 2019, published 2022)
“Also recorded” adds a separate entry of the source. Where two headings read alike, the source gives them in different places.

How the values were obtained:
[1] = test system: IRF pathway; test: THP-1 Dual reporter assay, interferon (IRF pathway) induction, Quanti-Luc; type: cell-based; settings: for effect on ceDNA-induced interferon induction: inhibitor pretreatment 2 h, 0.625-2.5 μM; for concentration giving maximal inhibition of interferon induction: doses 0.625, 1.25, 2.5 μM
[2] = test system: IFN-α, IFN-γ, IL-6, IP-10, IL-18, IL-1β, MCP-1, and TNF-alpha; test: ProcartaPlex multiplex cytokine immunoassay after TTX-9 ceDNA with inflammasome inhibitor pre-treatment; type: in vivo; settings: C57bL mice, inhibitor i.p. 12-16 h and 1 h before 0.5 mg/kg ceDNA (TTX9-LNP) IV
[3] = molecular target: T1, human TLR9 (Homo sapiens, UniProt Q9NR96); test: HEK-BLUE.hTLR9 NF-κB/SEAP assay (Quanti-BLUE); type: cell-based; settings: A151 10 μM, 3 h pretreatment, 300 ng ceDNA
T1 construct: host or cells: HEK-293 (HEK-BLUE.hTLR9 cells)
T1 sequence (Q9NR96 26-1032): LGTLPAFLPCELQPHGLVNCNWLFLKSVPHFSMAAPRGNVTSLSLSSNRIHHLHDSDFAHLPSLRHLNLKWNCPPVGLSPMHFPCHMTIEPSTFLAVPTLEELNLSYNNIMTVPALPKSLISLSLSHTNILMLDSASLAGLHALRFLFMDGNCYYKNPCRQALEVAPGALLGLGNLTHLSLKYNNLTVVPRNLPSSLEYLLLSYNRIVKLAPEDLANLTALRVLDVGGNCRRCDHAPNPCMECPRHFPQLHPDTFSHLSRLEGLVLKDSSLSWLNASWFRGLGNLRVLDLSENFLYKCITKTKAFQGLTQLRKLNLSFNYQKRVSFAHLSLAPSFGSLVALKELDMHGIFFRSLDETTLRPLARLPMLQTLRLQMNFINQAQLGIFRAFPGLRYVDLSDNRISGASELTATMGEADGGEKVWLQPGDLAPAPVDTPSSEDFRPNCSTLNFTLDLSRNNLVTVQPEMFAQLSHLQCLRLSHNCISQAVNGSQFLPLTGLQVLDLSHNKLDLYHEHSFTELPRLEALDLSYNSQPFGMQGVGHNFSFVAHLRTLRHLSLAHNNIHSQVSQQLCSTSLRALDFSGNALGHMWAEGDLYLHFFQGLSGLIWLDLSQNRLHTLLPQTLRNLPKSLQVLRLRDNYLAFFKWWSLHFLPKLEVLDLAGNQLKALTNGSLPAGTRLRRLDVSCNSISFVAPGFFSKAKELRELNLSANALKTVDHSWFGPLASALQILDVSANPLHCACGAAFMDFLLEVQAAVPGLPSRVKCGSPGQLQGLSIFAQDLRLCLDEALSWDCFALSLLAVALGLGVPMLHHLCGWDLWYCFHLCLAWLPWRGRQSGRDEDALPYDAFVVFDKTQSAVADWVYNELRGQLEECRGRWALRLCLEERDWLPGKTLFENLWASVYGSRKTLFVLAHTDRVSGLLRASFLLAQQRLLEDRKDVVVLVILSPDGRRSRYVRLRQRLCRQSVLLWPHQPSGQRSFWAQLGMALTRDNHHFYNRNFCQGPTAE

[4] = test system: Factor IX deficient mice; test: Factor IX plasma ELISA, ceDNA encoding Factor IX and A151; type: in vivo

Row | Compound | effect on ceDNA-induced interferon induction [1] | levels of IL-18 [2] | concentration giving maximal inhibition of interferon induction [1] | further results
1 | O=C(NCCCNc1nc(Nc2cccc(NC(=O)N3CCCC3)c2)ncc1I)c1cccs1 [BX795, N-[3-[[5-Iodo-4-[[3-[(2-thienylcarbonyl)amino]propyl]amino]-2-pyrimidinyl]amino]phenyl]-1-pyrrolidinecarboxamide] | similarly reduce this interferon pathway activation; also recorded: abrogation of ceDNA-induced interferon induction |  |  | 
2 | CC(C)(O)c1coc(S(=O)(=O)NC(=O)Nc2c3c(cc4c2CCC4)CCC3)c1 [MCC950] |  | significant reduction of IFN-γ; also recorded: significantly reduced |  | levels of IFNγ [2]: significant reduction of IFN-γ; also recorded: significantly reduced; levels of IP-10 [2]: reduction in levels
3 | CO[C@H]1C[C@@H]2CC[C@@H](C)[C@@](O)(O2)C(=O)C(=O)N2CCCC[C@H]2C(=O)O[C@H]([C@H](C)C[C@@H]2CC[C@@H](O)[C@H](OC)C2)CC(=O)[C@H](C)/C=C(\C)[C@@H](O)[C@@H](OC)C(=O)[C@H](C)C[C@H](C)/C=C/C=C/C=C/1C [RAPA, rapamycin] |  |  |  | RAPA solubility in the dispersed nanocarrier phase (PLA and PLA-PEG as nanocarrier polymers): 8.4 % wt/wt; RAPA solubility in the dispersed nanocarrier phase (PLGA and PLA-PEG as nanocarrier polymers): 7.2 % wt/wt
4 | CCO[C@@H]1OC(=O)C[C@@H]1NC(=O)[C@@H]1CCCN1C(=O)[C@@H](NC(=O)c1ccc(N)c(Cl)c1)C(C)(C)C [VX765, (S)-1-((S)-2-{[1-(4-amino-3-chloro-phenyl)-methanoyl]-amino}-3,3-dimethyl-butanoyl)-pyrrolidine-2-carboxylic acid ((2R,3S)-2-ethoxy-5-oxo-tetrahydro-furan-3-yl)-amide] |  | reduced |  | 
5 | A151: oligonucleotide TTAGGGTTAGGGTTAGGGTTAGGG (SEQ ID NO:892) | similarly reduce this interferon pathway activation; also recorded: dose-dependency of interferon induction inhibition; also recorded: concentration-dependent |  | 2.5 µM | ceDNA-stimulated NF-κB induction in presence of inhibitor [3]: reduced the ceDNA-stimulated NF-κB induction to the same degree as methylation of CpG; also recorded: minimal levels of NF-κB induction; cytokine secretion upon re-dose ([4]; versus ceDNA vector encoding only Factor IX): less activation of cytokine secretion; expression of factor IX ([4]; versus ceDNA vector expressing only Factor IX): increased and/or sustained expression of factor IX
6 | AS1411: TLR9 inhibitory oligonucleotide GGTGGTGGTGGTTGTGGTGGTGGTGG, SEQ ID NO: 903 (chemistry not given here) | dose-dependency of interferon induction inhibition; also recorded: concentration-dependent |  | 2.5 µM | 
